Read-outs that look alike come from different tables or passages of the source.
What was measured:
[1] = test system: human embryonic kidney 293t cell lines; test: Toxicity on human embryonic kidney 293T cells; details: human
Description: The following representative compounds are tested for their RORγt inhibitory activity and toxicity.

human RORγ LBD = target: T1, human RORγ LBD (Homo sapiens, UniProt P51449); test: In vitro binding and competition assay (fluorescence polarization, fluorescein-labeled 25-hydroxycholesterol)
T1 construct: Human RORγ LBD (residues 262-518); 6×His-tag (N); thrombin cleavage site (N); made in house; host or cells: E. coli BL21-CodonPlus(DE3)-RIL, pET46 Ek/Lic vector
Description: All DNA constructs were generated by PCR-based methodology and confirmed by sequencing. […] IL-17a, IFN-γ, IL-4, and CCR6 protein expression was examined by intracellular or surface staining according to the manufacturer's protocol.
The cells were induced with 0.5 mM IPTG at 16° C. overnight, then collected and lysed in 20 mM Tris-HCl (pH 8.0), 500 mM NaCl, 20 mM imidazole and 10% glycerol. Supernatant was loaded onto a HisTrap™ FF crude 5 mL column on an AKTAxpress HPLC system. The protein was eluted with a 20-500 mM imidazole gradient, dialyzed overnight against 20 mM Tris-HCl (pH 8.0) and 200 mM NaCl, and further purified on a Q Sepharose™ Fast Flow anion exchange column (Amersham Biosciences). The flow-through fraction containing pure RORγ LBD protein was collected, and DTT was added to 10 mM immediately after calculating protein concentration by OD280. For the binding assay, 2 nM Fluorescein-labeled 25-hydroxycholesterol was incubated with purified RORγ LBD protein for 2 hrs at room temperature. Protein concentration was varied by serial dilution in binding buffer (20 mM Tris-HCl (pH 8.0), 200 mM NaCl, 10 mM DTT). Fluorescent polarization signals were measured with a Beacon 2000 (PanVera).

human RORγt = target: T2, human RORγt (Homo sapiens, UniProt P51449); test: IL-17a induction in human CD4+ T cells transduced with RORαd, RORβ or RORγt; type: cell-based
T2 construct: expressed in transfected cells; host or cells: human CD4+ T cells (cord blood or adult blood), lentiviral HDV-IRES-GFP/HSA vectors
T2 sequence (P51449 1-497 isoform P51449-2): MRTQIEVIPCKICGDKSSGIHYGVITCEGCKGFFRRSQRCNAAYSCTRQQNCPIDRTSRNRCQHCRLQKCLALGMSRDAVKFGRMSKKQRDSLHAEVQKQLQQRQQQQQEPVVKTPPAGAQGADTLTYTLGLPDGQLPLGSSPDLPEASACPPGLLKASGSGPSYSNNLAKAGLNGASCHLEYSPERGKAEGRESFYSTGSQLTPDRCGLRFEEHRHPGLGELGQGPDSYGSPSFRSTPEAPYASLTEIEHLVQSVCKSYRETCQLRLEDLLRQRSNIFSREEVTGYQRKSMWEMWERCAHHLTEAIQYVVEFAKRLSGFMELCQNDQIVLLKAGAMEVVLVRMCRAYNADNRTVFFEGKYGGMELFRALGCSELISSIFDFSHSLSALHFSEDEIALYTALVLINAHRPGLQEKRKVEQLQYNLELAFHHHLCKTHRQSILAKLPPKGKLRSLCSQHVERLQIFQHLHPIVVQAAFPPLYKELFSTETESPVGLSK
Description: GFP expressing cells were gated for analysis. DMSO, Dig(dhd) (40 μM) or Dig(sal) (10 μM) was added 6-8 h after viral transduction. c, Flow cytometry of the production of IL-17a and IFN-γ by human naive cord blood T cells cultured for six days in the presence of IL-2, IL-23, and IL-1β, with various concentrations of TGF-β. DMSO, Dig(dhd), or Dig(sal) at indicated concentrations (μM) was added 16 h after cytokine addition.
(§1) Blood samples were obtained from the New York Blood Center. Mononuclear cells were prepared from buffy coats from healthy adult donors or from cord blood, using FicollPAQUE gradients. CD4^+ T cells were magnetically selected (autoMACS, Miltenyi). Adult memory CD4^+ T cell subsets were further purified as CD3^+CD4^+CD25^− CD45RO^+CCR6^+CD161^+ by cell sorting on a FACSAria (BD). Naive CD4^+ T cells were isolated from cord blood as CD3^+CD4^+CD45RA^+HLA-DR^−CD25^−DAPI^−. Memory cells were activated with anti-CD3/CD28 coated beads (1 bead/cell) in T cell media (see above) supplemented with 100 U/mL IL-2 (Peprotech), 10 ng/mL IL-1b and 10 ng/mL IL-23 (eBioscience). Naive cells were activated with anti-CD3/CD28 beads and cultured with the same cytokines, and TGF-b (0, 0.1, 1, or, 10 ng/mL) (Peprotech), in XVIVO-20 (Lonza) media. […] Naive CD4^+ T cells, cultured in XVIVO-20 media supplemented 100 U/mL IL-2 (Peprotech), were transduced with RORad-IRES-GFP or RORγt-IRES-GFP on day 1 and analyzed on day 6. GFP expressing cells were gated for analysis. DMSO or compounds were added 6-8 hours after the viral transduction.
Blood samples were obtained from the New York Blood Center. Mononuclear cells were prepared from buffy coats from healthy adult donors or from cord blood, using FicollPAQUE gradients. CD4^+ T cells were magnetically selected (autoMACS, Miltenyi). Adult memory CD4+ T cell subsets were further purified as CD3^+CD4^+CD25^−CD45RO^+CCR6^+CD161^+ by cell sorting on a FACSAria (BD). […] Naive CD4+ T cells, cultured in XVIVO-20 media supplemented with 100 U/mL IL-2 (Peprotech), were transduced with RORαd-IRES-GFP or RORγt-IRES-GFP on day 1 and analyzed on day 6. […]

human memory Th17 cells = details: 40 μM, 6 days
Description: Mononuclear cells were collected from draining lymph nodes of wild-type or IL-23RGFP knock-in heterozygous mice 7 days after MOG(35-55)/CFA injection.
as §1, with “GFP expressing cells were gated for analysis. DMSO or compounds were added 6-8 hours after the viral transduction.” left out
Blood samples were obtained from the New York Blood Center. […] Naive CD4+ T cells, cultured in XVIVO-20 media supplemented with 100 U/mL IL-2 (Peprotech), were transduced with RORαd-IRES-GFP or RORγt-IRES-GFP on day 1 and analyzed on day 6. […]

[2] = test system: Th17 cell transfer-mediated EAE; test: Th17 cell transfer-mediated (passive) EAE; type: in vivo, mouse; details: daily from day 2, RAG-2-deficient mice

SMILES	cytotoxic concentration on human cells [1]	IC50 (human RORγ LBD)	RORγt-mediated IL-17a induction (versus RORαd) (human RORγt; 40 μM, FIG. 3b)	IFN-γ-expressing cells (human memory Th17 cells)	reduction of IL-17a-expressing cells (human memory Th17 cells)	IC50 (human RORγ LBD; in vitro competition assay, human RORγ LBD, read-out: IC50, displacement of fluorescein-labeled 25-hydroxycholesterol)	onset and severity of Th17 cell transfer-mediated EAE [2]	RORαd-, β- or γt-mediated induction of IL-17a (human RORγt; human T cells expressing murine Na+/K+-ATPase)
CC1O[C@@H](OC2C(C)O[C@H](OC3C(C)O[C@@H](O[C@H]4CC[C@@]5(C)[C@H](CC[C@@H]6[C@@H]5C[C@@H](O)[C@]5(C)[C@@H](C(CO)CCO)CC[C@]65O)C4)C[C@H]3O)C[C@H]2O)C[C@@H](O)C1O (some centres unmarked) [Compound 13, 20,22-Dihydrodigoxin-21,23-diol]	> 40 µM	12 µM	selectively suppressed	little effect	40-50%			
C[C@H]1O[C@@H](O[C@H]2[C@@H](O)C[C@H](O[C@H]3[C@@H](O)C[C@H](O[C@H]4CC[C@@]5(C)[C@H](CC[C@@H]6[C@@H]5C[C@@H](O)[C@]5(C)[C@@H](C7=CC(=O)OC7)CC[C@]65O)C4)O[C@@H]3C)O[C@@H]2C)C[C@H](O)[C@@H]1O [Digoxin]						4.1 µM	delayed onset and reduced severity	inhibited only RORγt-mediated induction of IL-17a

— patent US9505798B2, “Steroid compounds as RORyt modulators and uses thereof” (New York University, priority 2010, dated 2016)
